# Experimental data as given in patent US20120029187A1, “HALOALKYLSULFONANILIDE DERIVATIVE” (Nissan Chemical Industries, Ltd., priority 2009, published 2012).
# Assays:
# Format in all cases: in vivo
# ducksalad = test: Test Example 2: herbicidal effects during the vegetation period under submerged conditions; settings: treatment during the vegetation period under submerged conditions; dose 2.52 g/a
# Method in brief: (§1)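 Barnyardgrass, bulrush and ducksalad were co-sown in alluvial soil flooded to 4 cm and grown in a greenhouse at 25 to 30° C. At the 1- or 2-leaf stage, water-diluted emulsifiable concentrates went onto the water surface at set doses (g/a). Herbicidal effect was scored three weeks later on a graded scale.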
# bulrush = test: as above; settings: treatment during the vegetation period under submerged conditions; dose 2.52 g/a
# Method in brief: as §1
# barnyardgrass [1] = test: as above; settings: treatment during the vegetation period under submerged conditions; dose 2.52 g/a
# Method in brief: as §1
# velvetleaf = test: Test Example 3: herbicidal effects in soil treatment; settings: dose 6.3 g/a
# Method in brief: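 Seeds were sown in sterilized diluvial soil and covered with about 1.5 cm of soil. Compounds, formulated as emulsifiable concentrates and diluted with water, were sprayed evenly over the soil surface at set doses in g/a. Herbicidal effect was scored on a rating scale three weeks later.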
# barnyardgrass [2] = test: Comparative Example 2: herbicidal effects on barnyardgrass during the vegetation period under submerged conditions; settings: applied to water surface at the 2- or 2.5-leaf stage, three weeks after application
# Experimental: Comparative Example 2 Test on the Herbicidal Effects on Barnyardgrass During the Vegetation Period Under Submerged Conditions Alluvial soil was put in 1/30000-are styrol cups and admixed with water so that it was submerged at a depth of 4 cm. In each cup, seeds of barnyardgrass were sown, and the cups were placed in a greenhouse at 25 to 30° C. to grow the plants. When the barnyardgrass reached the 2- or 2.5-leaf stage, emulsifiable concentrates containing compounds of the present invention and the comparative compounds formulated in accordance with Formulation Example 2 were applied to the water surfaces at predetermined doses after diluted with water. Three weeks after the application, the herbicidal effects were determined on the same evaluation scale as in Test Example 1. The symbol A in the table is the same as defined above.
structure (smiles),measurement,setting,value
CC(C)COC(=O)N(c1ccccc1CN1COCCC1=O)S(=O)(=O)C(F)(F)F [II-3],"C: ducksalad, herbicidal effect (evaluation scale 0-5)",ducksalad,4 (mortality of at least 70% and less than 90%)
same,"B: bulrush, herbicidal effect (evaluation scale 0-5)",bulrush,5 (mortality of 90% or above (nearly complete death))
same,"A: barnyardgrass, herbicidal effect (evaluation scale 0-5)",barnyardgrass [1],5 (mortality of 90% or above (nearly complete death))
same,"I: velvetleaf, herbicidal effect (evaluation scale 0-5)",velvetleaf,4 (mortality of at least 70% and less than 90%)
same,"herbicidal effect, A (barnyardgrass)",barnyardgrass [2]; dose 0.16 g/a,0 (mortality of less than 5% (almost ineffective))
same,"herbicidal effect, A (barnyardgrass)",barnyardgrass [2]; dose 0.64 g/a,3 (mortality of at least 40% and less than 70%)
same,"herbicidal effect, A (barnyardgrass)",barnyardgrass [2]; dose 2.52 g/a,5 (mortality of 90% or above (nearly complete death))
